Measured values reported in patent publication US12115178B2, “Acylated active agents and methods of their use for the treatment of autoimmune disorders” (Flagship Pioneering Innovations V, Inc., priority 2018, dated 2024).

Experiment: Assay 2. Stability in Simulated Intestinal Fluid (SIF)
Type: in vitro ADME
Settings: SIF pH 6.7 with pancreatin, 1 μM, 37° C.
Description: Assay 2. Stability of acylated active agents in Simulated Intestinal Fluid (SIF). This assay was used to assess the stability of an acylated active agent in a small intestine. Phosphate buffer was prepared by dissolving 0.42 g of sodium hydroxide pellets and 3.95 g of monobasic sodium phosphate monohydrate and 6.19 g of sodium chloride in ultrapure water (MilliQ®, Millipore Sigma, Darmstadt, Germany). The pH was adjusted to 6.7 using aq. HCl and aq. NaOH, as necessary, and the solution was diluted with ultrapure water to produce 1 L of the pH 6.7 buffer. 112 mg FaSSIF powder (Biorelevant™, London, UK) was dissolved in 50 mL of the pH 6.7 buffer. 2 to 3 mL of the resulting solution were then added to 500 mg pancreatin (Millipore Sigma, Darmstadt, Germany). The resulting mixture was agitated by finger tapping the vessel containing the mixture until milky suspension formed. At this time, the remainder of the 50 mL FaSSiF/pH 6.7 buffer solution was added. The resulting suspension was flipped upside down 10 times to produce SIF, which was used fresh. Test compounds were dissolved in DMSO stock to 1 mM. An aliquot of the DMSO stock solution was removed and diluted in the SIF media in 15 mL falcon tubes to produce a mixture with a tested compound concentration of 1 μM. A 1 mL aliquot was immediately removed and diluted once with 1 volume of acetonitrile for T0 timepoint. The mixture was sealed and agitated at 37° C. in an incubator. Aliquots (1 mL) were removed at regular intervals and immediately quenched by the addition of 1 volume of acetonitrile. The resulting samples were analyzed by LC/MS to determine degradation rates.

SMILES | Assay 2 (SIF) (% @ Remaining 4 hours)
CC(=O)Oc1ccc(-c2oc3cc(OC(C)=O)cc(OC(C)=O)c3c(=O)c2OC(C)=O)cc1 [Compound 8, [4-(3,5,7-triacetoxy-4-oxo-chromen-2-yl)phenyl] acetate] | A (<25% of the tested compound remaining)
CC(=O)Oc1ccc2c(c1)oc(=O)c1cc(OC(C)=O)c(OC(C)=O)cc12 [Compound 203, 6-oxo-6H-benzo[c]chromene-3,8,9-triyl triacetate] | B (25-75% of the tested compound remaining)
CCCC(=O)O[C@@H]1O[C@@H](C)[C@H](OC(=O)CCC)[C@@H](OC(=O)CCC)[C@H]1OC(=O)CCC [Compound 120, (2S,3R,4R,5S,6S)-3,4,5-tris(butanoyloxy)-6-methyloxan-2-yl butanoate] | A (<25% of the tested compound remaining)
CCCC(=O)O[C@H]1OC[C@@H](OC(=O)CCC)[C@H](OC(=O)CCC)[C@H]1OC(=O)CCC [Compound 159, (2R,3R,4S,5R)-3,4,5-tris(butanoyloxy)oxan-2-yl butanoate] | C (>75% of the tested compound remaining)
CCCC(=O)OCC1(OC(=O)CCC)OC[C@@H](OC(=O)CCC)[C@H](OC(=O)CCC)[C@@H]1OC(=O)CCC (stereo partly drawn) [Compound 131, [(3S,4S,5R)-2,3,4,5-tetrakis(butanoyloxy)oxan-2-yl]methyl butanoate] | A (<25% of the tested compound remaining)
CCCC(=O)Oc1ccc(/N=N/c2ccc(OC(=O)CCC)c(C(=O)O)c2)cc1C(=O)O [Compound 17, 2-butanoyloxy-5-[(E)-(4-butanoyloxy-3-carboxy-phenyl)azo]benzoic acid] | A (<25% of the tested compound remaining)
CCCC(=O)Nc1ccc(O[C@@H]2OC[C@@H](OC(=O)CCC)[C@H](OC(=O)CCC)[C@H]2OC(=O)CCC)c(C(=O)O)c1 [Compound 188, 5-butanamido-2-{[(2S,3R,4S,5R)-3,4,5-tris(butanoyloxy)oxan-2-yl]oxy}benzoic acid] | A (<25% of the tested compound remaining)
CCCC(=O)O[C@H]1O[C@@H](C)[C@H](OC(=O)CCC)[C@@H](OC(=O)CCC)[C@H]1OC(=O)CCC [Compound 119, (2R,3R,4R,5S,6S)-3,4,5-tris(butanoyloxy)-6-methyloxan-2-yl butanoate] | A (<25% of the tested compound remaining)
CC(=O)Oc1ccc([C@@H]2CC(=O)c3c(OC(C)=O)cc(OC(C)=O)cc3O2)cc1 [Compound 176, (S)-2-(4-acetoxyphenyl)-4-oxochromane-5,7-diyl diacetate] | A (<25% of the tested compound remaining)
CCCC(=O)O[C@@H]1[C@@H](OC(=O)CCC)[C@H](C)O[C@@H](O)[C@@H]1OC(=O)CCC [Compound 141, (2S,3S,4R,5R)-4,5-bis(butanoyloxy)-6-hydroxy-2-methyloxan-3-yl butanoate] | C (>75% of the tested compound remaining)
CC(=O)Oc1cc(OC(C)=O)c2c(=O)c(OC(C)=O)c(-c3ccc(OC(C)=O)c(OC(C)=O)c3)oc2c1 [Compound 182, [2-acetoxy-4-(3,5,7-triacetoxy-4-oxo-chromen-2-yl)phenyl] acetate] | A (<25% of the tested compound remaining)
C[C@@H]1O[C@@H](OC(=O)Cc2c[nH]c3ccccc23)[C@H](OC(=O)Cc2c[nH]c3ccccc23)[C@H](OC(=O)Cc2c[nH]c3ccccc23)[C@H]1OC(=O)Cc1c[nH]c2ccccc12 [Compound 122, (2S,3R,4R,5S,6S)-3,4,5-tris({[2-(1H-indol-3-yl)acetyl]oxy})-6-methyloxan-2-yl 2-(1H-indol-3-yl)acetate] | A (<25% of the tested compound remaining)
CCCC(=O)O[C@H]1[C@@H](Oc2ccccc2C(=O)O)OC[C@@H](OC(=O)CCC)[C@H]1OC(=O)CCC [Compound 42, 2-(((3R,4R,5R)-3,4,5-tris(butyryloxy)tetrahydro-2H-pyran-2-yl)oxy)benzoic acid] | C (>75% of the tested compound remaining)
CCCC(=O)Oc1ccc([C@@H]2CC(=O)c3c(OC(=O)CCC)cc(OC(=O)CCC)cc3O2)cc1 [Compound 175, (S)-2-(4-(butyryloxy)phenyl)-4-oxochromane-5,7-diyl dibutyrate] | A (<25% of the tested compound remaining)
CCCC(=O)O[C@@H]1[C@@H](OC(=O)CCC)[C@@H](Oc2ccc(N)cc2C(=O)O)OC[C@H]1OC(=O)CCC [Compound 184, 5-amino-2-[(2R,3R,4S,5R)-3,4,5-tri(butanoyloxy)tetrahydropyran-2-yl]oxy-benzoic acid] | B (25-75% of the tested compound remaining)
C[C@@H]1O[C@H](OC(=O)Cc2c[nH]c3ccccc23)[C@H](OC(=O)Cc2c[nH]c3ccccc23)[C@H](OC(=O)Cc2c[nH]c3ccccc23)[C@H]1OC(=O)Cc1c[nH]c2ccccc12 [Compound 121, (2R,3R,4R,5S,6S)-3,4,5-tris({[2-(1H-indol-3-yl)acetyl]oxy})-6-methyloxan-2-yl 2-(1H-indol-3-yl)acetate] | A (<25% of the tested compound remaining)

Experiment: Assay 1. Stability in Simulated Gastric Fluid (SGF)
Type: in vitro ADME
Settings: SGF pH 1.6 with pepsin, 1 μM, 37° C.
Description: Assay 1. Stability of acylated active agents in Simulated Gastric Fluid (SGF). This assay was used to assess the stability of an acylated active agent in a stomach.
Medium was prepared by dissolving 2 g of sodium chloride in 0.6 L in ultrapure water (MilliQ®, Millipore Sigma, Darmstadt, Germany). The pH was adjusted to 1.6 with 1N hydrochloric acid, and the volume was then adjusted to 1 L with purified water.
60 mg FaSSIF powder (Biorelevant™, London, UK) were dissolved in 500 mL buffer (above). Pepsin was added (0.1 mg/mL) (Millipore Sigma, Darmstadt, Germany), and the solution was stirred. The resulting SGF media were used fresh for each experiment.
Test compounds were dissolved in DMSO stock to 1 mM. An aliquot of the DMSO stock solution was removed and diluted in the SGF Media in 15 mL falcon tubes to generate a total compound concentration of 1 μM. A 1 mL aliquot was immediately removed and diluted once with 1 volume of acetonitrile for T0 timepoint. The mixture was sealed and mixed at 37° C. in an incubator. Aliquots (1 mL) were removed at regular intervals and immediately quenched by the addition of 1 volume of acetonitrile. The resulting samples were analyzed by LC/MS to determine degradation rates in SGF.

SMILES | Assay 1 (SGF) (% Remaining @ 1 hour)
CCC(=O)Oc1cc(OC(=O)CC)c2c(=O)c(OC(=O)CC)c(-c3ccc(OC(=O)CC)c(OC(=O)CC)c3)oc2c1 [Compound 174, [4-[4-oxo-3,5,7-tri(propanoyloxy)chromen-2-yl]-2-propanoyloxy-phenyl] propanoate] | C (>75% of the tested compound remaining)
CC(=O)Oc1ccc(-c2oc3cc(OC(C)=O)cc(OC(C)=O)c3c(=O)c2OC(C)=O)cc1 [Compound 177, [4-(3,5,7-triacetoxy-4-oxo-chromen-2-yl)phenyl] acetate] | C (>75% of the tested compound remaining)
CC(=O)Oc1cc(OC(C)=O)c2c(=O)c(OC(C)=O)c(-c3ccc(OC(C)=O)c(OC(C)=O)c3)oc2c1 [Compound 4, [2-acetoxy-4-(3,5,7-triacetoxy-4-oxo-chromen-2-yl)phenyl] acetate] | C (>75% of the tested compound remaining)
CCC(=O)OC[C@H]1O[C@@H](OC(=O)/C=C/c2c[nH]c3ccccc23)[C@H](OC(=O)CC)[C@@H](OC(=O)CC)[C@@H]1OC(=O)CC [Compound 95, (2S,3R,4S,5R,6R)-3,4,5-tris(propanoyloxy)-6-[(propanoyloxy)methyl]oxan-2-yl (2E)-3-(1H-indol-3-yl)prop-2-enoate] | B (25-75% of the tested compound remaining)
CCCC(=O)OC[C@H]1O[C@@H](Oc2ccccc2C(=O)O)[C@H](OC(=O)CCC)[C@@H](OC(=O)CCC)[C@@H]1OC(=O)CCC [Compound 28, 2-(((2S,3R,4S,5R,6R)-3,4,5-tris(butyryloxy)-6-((butyryloxy)methyl)tetrahydro-2H-pyran-2-yl)oxy)benzoic acid] | C (>75% of the tested compound remaining)
CCC(=O)O[C@H]1[C@H](OC(=O)CC)[C@H](OC(=O)/C=C/c2c[nH]c3ccccc23)O[C@@H](C)[C@H]1OC(=O)CC [Compound 116, (2S,3S,4R,5R,6S)-6-methyl-3,4,5-tris(propanoyloxy)oxan-2-yl (2E)-3-(1H-indol-3-yl)prop-2-enoate] | C (>75% of the tested compound remaining)
CC(=O)Oc1cc(OC(C)=O)c2c(=O)c(OC(C)=O)c(-c3cc(OC(C)=O)c(OC(C)=O)c(OC(C)=O)c3)oc2c1 [Compound 11, [3,5-diacetoxy-4-oxo-2-(3,4,5-triacetoxyphenyl)chromen-7-yl] acetate] | C (>75% of the tested compound remaining)
CCC(=O)O[C@@H]1OC[C@H](OC(=O)CC)[C@H](OC(=O)CC)[C@H]1OC(=O)CC [Compound 128, (2S,3R,4S,5S)-3,4,5-tris(propanoyloxy)oxan-2-yl propanoate] | C (>75% of the tested compound remaining)
CCC(=O)Oc1cc(OC(=O)CC)c2c(c1)O[C@H](c1cc(OC(=O)CC)c(OC(=O)CC)c(OC(=O)CC)c1)[C@H](OC(=O)c1cc(OC(=O)CC)c(OC(=O)CC)c(OC(=O)CC)c1)C2 [Compound 195, [(2R,3R)-5,7-di(propanoyloxy)-2-[3,4,5-tri(propanoyloxy)phenyl]chroman-3-yl] 3,4,5-tri(propanoyloxy)benzoate] | C (>75% of the tested compound remaining)
